The source of these data is patent publication US10953011B2, “Methods of treating virally associated cancers with histone deacetylase inhibitors” (priority 2019, dated 2021).

Data set [1] concerns P3HR1 Burkitt's lymphoma cells. Briefly: Cell death (7AAD) after Nstat, washout, then ganciclovir. The method, then: P3HR1 Burkitt's lymphoma cells were incubated with DMSO (solvent control) or Nstat for 3 days. After that time cell cultures were washed re-fed with ganciclovir (GCV) for an additional 3 days. All test conditions were run in triplicate. Cell death was measured by 7AAD staining.

A further data set addresses HDAC5 (Homo sapiens, UniProt Q9UQL6). Briefly: in vitro HDAC inhibition assay (fluorescence). Format: biochemical. The conditions noted are these: 1 h pre-incubation; 2 μM HDAC Substrate Class 2a; read-out: IC50 (μM) HDAC5. The method, then:
(§1) Briefly, all of the compounds are dissolved in DMSO. A series of dilutions of the compounds were prepared with 10% DMSO in HDAC assay buffer and 5 μl of the dilution was added to a 50 μl reaction so that the final concentration of DMSO is 1% in all of reactions. The compounds were pre-incubated in duplicate at RT for 1 hour in a mixture containing HDAC assay buffer, 5 μg BSA, HDAC enzyme (see Table 7) and a the particular HDACi. After 1 hour, the enzymatic reactions were initiated by the addition of HDAC substrate (BPS Bioscience) to a final concentration of 10 μM or 2 μM. The enzymatic reaction proceeded for 30 minutes at 37° C.
(§2) HDAC activity assays were performed in duplicates at each concentration. The fluorescent intensity data were analyzed using the computer software, Graphpad Prism. In the absence of the compound, the fluorescent intensity (Ft) in each data set was defined as 100% activity. In the absence of HDAC, the fluorescent intensity (Fb) in each data set was defined as 0% activity. The percent activity in the presence of each compound was calculated according to the following equation: % activity=(F−Fb)/(Ft−Fb), where F=the fluorescent intensity in the presence of the compound.
(§3) The values of % activity versus a series of compound concentrations were then plotted using non-linear regression analysis of Sigmoidal dose-response curve generated with the equation Y=B+(T−B)/1+10^((Log EC50-X)×Hill Slope), where Y=percent activity, B=minimum percent activity, T=maximum percent activity, X=logarithm of compound and Hill Slope=slope factor or Hill coefficient. The IC50 value was determined by the concentration causing a half-maximal percent activity.

The next data set addresses HDAC4 (Homo sapiens, UniProt P56524). Briefly: in vitro HDAC inhibition assay (fluorescence). Format: biochemical. The conditions noted are these: 1 h pre-incubation; 2 μM HDAC Substrate Class 2a; read-out: IC50 (μM) HDAC4. The method, then: as §1, §2, §3
A further data set has as its target HDAC9 (Homo sapiens, UniProt Q9UKV0). Briefly: in vitro HDAC inhibition assay (fluorescence). The conditions noted are these: 1 h pre-incubation; 2 μM HDAC Substrate Class 2a; read-out: IC50 (μM) HDAC9. It counts as biochemical. The method, then: as §1, §2, §3
A further data set addresses T1, HDAC 6 (Homo sapiens, UniProt Q9UBN7).
T1 sequence (Q9UBN7 1-1215): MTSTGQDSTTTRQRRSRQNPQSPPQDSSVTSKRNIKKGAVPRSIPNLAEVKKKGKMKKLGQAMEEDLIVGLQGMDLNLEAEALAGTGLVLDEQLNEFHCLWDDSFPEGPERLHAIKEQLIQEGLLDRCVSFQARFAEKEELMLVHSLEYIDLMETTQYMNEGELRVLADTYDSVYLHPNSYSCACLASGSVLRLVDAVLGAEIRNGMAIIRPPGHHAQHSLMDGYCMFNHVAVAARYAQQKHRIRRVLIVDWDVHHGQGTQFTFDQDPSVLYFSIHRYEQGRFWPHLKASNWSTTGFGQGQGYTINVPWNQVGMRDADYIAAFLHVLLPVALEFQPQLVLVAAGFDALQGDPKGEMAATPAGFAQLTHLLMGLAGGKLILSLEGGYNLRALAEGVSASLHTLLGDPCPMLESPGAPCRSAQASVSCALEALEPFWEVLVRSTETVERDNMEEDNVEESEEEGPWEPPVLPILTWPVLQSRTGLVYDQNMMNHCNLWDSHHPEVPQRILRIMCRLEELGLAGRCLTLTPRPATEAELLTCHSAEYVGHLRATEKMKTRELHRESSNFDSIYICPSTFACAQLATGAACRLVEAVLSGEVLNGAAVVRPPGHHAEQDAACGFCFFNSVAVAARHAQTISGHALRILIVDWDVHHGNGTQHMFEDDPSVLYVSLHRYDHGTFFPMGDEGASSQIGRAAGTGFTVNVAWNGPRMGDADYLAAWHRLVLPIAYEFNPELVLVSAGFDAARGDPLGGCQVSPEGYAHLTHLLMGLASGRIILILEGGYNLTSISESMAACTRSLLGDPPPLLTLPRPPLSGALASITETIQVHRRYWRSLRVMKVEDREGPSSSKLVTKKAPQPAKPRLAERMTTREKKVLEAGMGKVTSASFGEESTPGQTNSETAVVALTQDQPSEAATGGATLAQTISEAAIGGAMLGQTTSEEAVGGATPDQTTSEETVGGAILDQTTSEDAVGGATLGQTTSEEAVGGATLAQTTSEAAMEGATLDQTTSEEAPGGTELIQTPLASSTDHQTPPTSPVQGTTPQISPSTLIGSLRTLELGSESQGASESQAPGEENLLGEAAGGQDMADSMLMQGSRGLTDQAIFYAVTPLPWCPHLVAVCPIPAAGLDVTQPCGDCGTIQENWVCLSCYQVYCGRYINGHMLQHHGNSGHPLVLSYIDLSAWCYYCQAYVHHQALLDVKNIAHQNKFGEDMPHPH
As to conditions: descriptive statement; cited from earlier work.

A short description of data set [2]: Single dose pharmacokinetics of oral nanatinostat in patients. It counts as in vivo, humans. As to conditions: human, serum; for AUC: read-out: AUC (ng-h/mL), geometric mean; for AUC(0-t): read-out: AUClast (ng-h/mL), geometric mean; for Cmax: read-out: Cmax (ng/mL), geometric mean; for Tmax: read-out: Tmax (h), median (range).
Data set [3] concerns Histone 3 acetylation in peripheral blood mononuclear cells. Nature of the data set: H3 acetylation in PBMC by flow cytometry. Format: cell-based, human. The text has this: Percentage of cells with H3 acetylation, as determined by flow cytometry, is shown.
Since H3 acetylation is a pharmacodynamic biomarker of Nstat activity, acetylation of H3 was examined in treated cells.
(In general: Flow cytometry measures light scatter and fluorescence of single cells or particles in a stream.)

The mark [4] stands for this setting: 5 mg, A = 5 mg VRx-3996 p.o. and 450 mg Valganciclovir p.o., single dose.
[5] abbreviates: 10 mg, B = 10 mg VRx-3996 p.o. and 450 mg Valganciclovir p.o., single dose.
The mark [6] stands for this setting: 10 mg, C = 10 mg VRx-3996 p.o. and 900 mg Valganciclovir p.o., single dose.

Structures are written as SMILES. Where two headings read alike, the source gives them in different places.

Chain of HDAC5 (Q9UQL6 whole entry): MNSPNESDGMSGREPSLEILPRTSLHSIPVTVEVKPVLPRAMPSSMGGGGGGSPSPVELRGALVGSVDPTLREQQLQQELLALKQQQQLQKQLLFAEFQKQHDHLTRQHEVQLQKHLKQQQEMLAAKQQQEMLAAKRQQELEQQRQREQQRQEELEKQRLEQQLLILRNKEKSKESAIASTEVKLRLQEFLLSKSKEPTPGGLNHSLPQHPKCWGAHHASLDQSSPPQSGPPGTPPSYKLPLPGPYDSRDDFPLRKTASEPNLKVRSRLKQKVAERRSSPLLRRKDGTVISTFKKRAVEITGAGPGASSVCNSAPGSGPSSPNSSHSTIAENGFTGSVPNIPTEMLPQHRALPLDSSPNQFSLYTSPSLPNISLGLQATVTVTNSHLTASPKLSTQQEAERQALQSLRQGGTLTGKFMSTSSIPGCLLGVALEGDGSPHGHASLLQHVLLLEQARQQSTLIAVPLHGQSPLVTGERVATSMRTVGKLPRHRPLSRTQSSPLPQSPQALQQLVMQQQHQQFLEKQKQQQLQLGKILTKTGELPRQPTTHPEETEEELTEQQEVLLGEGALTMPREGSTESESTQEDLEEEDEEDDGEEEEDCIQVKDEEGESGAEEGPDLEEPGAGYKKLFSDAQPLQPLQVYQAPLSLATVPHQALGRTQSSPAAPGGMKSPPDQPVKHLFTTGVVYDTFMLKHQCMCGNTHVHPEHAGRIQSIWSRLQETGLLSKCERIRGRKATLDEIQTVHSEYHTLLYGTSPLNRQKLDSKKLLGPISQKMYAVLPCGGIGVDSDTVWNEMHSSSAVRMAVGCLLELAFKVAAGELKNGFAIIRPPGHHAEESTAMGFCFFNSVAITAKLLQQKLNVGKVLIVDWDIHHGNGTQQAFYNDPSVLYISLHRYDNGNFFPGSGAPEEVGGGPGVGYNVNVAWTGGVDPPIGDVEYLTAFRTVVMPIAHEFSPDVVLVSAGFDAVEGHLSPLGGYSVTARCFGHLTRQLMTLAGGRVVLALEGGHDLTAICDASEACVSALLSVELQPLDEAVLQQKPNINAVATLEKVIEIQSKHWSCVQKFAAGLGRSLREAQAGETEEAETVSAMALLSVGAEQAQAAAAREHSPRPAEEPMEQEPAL
Chain of HDAC9 (Q9UKV0 whole entry): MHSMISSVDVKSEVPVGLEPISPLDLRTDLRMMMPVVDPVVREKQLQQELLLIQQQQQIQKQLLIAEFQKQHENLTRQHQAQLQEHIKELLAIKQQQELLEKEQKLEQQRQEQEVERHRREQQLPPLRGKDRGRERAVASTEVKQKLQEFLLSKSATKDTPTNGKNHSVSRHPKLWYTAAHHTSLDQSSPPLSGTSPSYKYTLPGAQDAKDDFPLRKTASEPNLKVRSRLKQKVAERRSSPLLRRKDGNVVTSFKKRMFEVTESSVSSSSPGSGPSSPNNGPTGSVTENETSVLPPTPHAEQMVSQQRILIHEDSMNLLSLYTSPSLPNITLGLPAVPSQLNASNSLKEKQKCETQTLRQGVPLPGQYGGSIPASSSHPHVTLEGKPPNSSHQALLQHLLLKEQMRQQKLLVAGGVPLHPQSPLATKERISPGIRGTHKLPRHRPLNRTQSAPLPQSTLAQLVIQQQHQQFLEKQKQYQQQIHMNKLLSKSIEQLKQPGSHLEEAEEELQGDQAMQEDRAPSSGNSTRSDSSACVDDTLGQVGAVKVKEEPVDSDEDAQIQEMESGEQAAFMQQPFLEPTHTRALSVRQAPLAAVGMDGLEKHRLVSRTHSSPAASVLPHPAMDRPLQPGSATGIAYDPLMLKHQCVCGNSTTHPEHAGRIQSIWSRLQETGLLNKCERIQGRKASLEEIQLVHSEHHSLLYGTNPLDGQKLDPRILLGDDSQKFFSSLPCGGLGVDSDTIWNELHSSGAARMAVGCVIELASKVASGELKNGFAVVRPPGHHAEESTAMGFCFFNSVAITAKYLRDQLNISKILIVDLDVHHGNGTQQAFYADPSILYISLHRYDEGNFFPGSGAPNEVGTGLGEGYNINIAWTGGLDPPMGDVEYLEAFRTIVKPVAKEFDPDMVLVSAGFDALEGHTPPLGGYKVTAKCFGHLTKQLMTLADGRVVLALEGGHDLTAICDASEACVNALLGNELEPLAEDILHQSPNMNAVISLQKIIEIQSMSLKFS
Chain of HDAC4 (P56524 whole entry): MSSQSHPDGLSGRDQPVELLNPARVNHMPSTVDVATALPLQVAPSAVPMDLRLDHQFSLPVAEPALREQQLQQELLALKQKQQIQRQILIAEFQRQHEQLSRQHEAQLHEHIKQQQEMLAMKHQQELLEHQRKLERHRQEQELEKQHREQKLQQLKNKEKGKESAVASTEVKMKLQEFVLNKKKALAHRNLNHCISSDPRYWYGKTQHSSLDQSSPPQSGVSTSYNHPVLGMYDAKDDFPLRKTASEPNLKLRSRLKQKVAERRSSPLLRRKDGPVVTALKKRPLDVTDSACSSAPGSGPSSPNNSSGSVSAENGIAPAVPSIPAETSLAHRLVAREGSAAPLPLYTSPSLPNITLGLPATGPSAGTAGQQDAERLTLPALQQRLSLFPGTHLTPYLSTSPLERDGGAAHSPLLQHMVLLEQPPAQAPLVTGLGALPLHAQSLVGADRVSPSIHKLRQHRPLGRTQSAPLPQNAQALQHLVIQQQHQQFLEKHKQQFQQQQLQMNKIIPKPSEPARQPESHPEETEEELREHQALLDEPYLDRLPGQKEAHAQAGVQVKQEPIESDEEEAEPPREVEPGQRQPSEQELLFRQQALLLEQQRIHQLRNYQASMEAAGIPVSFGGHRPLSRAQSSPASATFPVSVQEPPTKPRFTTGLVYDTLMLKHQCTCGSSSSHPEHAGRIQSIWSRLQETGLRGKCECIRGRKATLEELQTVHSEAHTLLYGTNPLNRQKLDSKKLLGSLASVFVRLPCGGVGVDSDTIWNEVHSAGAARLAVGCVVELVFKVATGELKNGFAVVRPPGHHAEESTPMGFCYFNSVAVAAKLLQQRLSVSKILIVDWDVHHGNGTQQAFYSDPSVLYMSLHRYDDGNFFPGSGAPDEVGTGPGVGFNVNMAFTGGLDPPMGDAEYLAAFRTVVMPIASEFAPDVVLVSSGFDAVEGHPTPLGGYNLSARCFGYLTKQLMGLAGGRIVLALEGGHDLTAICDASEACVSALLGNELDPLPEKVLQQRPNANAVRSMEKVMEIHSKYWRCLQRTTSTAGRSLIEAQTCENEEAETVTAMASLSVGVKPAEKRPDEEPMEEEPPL

As usually defined, the IC50 is the concentration at which inhibition is half-maximal. In general, Tmax refers to the time at which the peak concentration occurs. On to `O=C(NO)c1cnc(N2C[C@@H]3[C@H](C2)[C@H]3NCc2ccc3cc(F)ccc3n2)nc1` [Nanatinostat, 2-((1R,5S,6s)-6-(((6-fluoroquinolin-2-yl)methyl)amino)-3-azabicyclo[3.1.0]hexan-3-yl)-N-hydroxypyrimidine-5-carboxamide], for which the “Increase of cytotoxic activity when combined with Ganciclovir” value in data set [1] is given as about 40%. Further, the “Cell cytotoxicity when combined with ganciclovir” value in data set [1] (EBV infected cell line, seen even after Nstat removal) was “increases cell cytotoxicity”. The IC50 turned out to be 0.39 µM at HDAC5, 1 µM on HDAC4 and 0.44 µM on HDAC9. Moreover, the “Activity against HDAC 6” value on HDAC 6 was “not HDAC 6”. Further, the figures for the AUC in data set [2] (setting [4]), in data set [2] (setting [5]) and in data set [2] (setting [6]) were 117 ng·h/mL, 317 ng·h/mL and 322 ng·h/mL, respectively. For the same compound, the AUC(0-t) in data set [2] (setting [4]) was 40.5 ng·h/mL; in data set [2] (setting [5]) it was 165 ng·h/mL; in data set [2] (setting [6]), 227 ng·h/mL. For the same compound, the Cmax came out at 18.5 ng/mL in data set [2] (setting [4]), 62.6 ng/mL in data set [2] (setting [5]) and 78.9 ng/mL in data set [2] (setting [6]). The half-life in data set [2] (5 mg, A = 5 mg VRx-3996 p.o. and 450 mg Valganciclovir p.o., single dose, read-out: Half-Life (h), geometric mean (converted)) was 2.18 h; in data set [2] (10 mg, B = 10 mg VRx-3996 p.o. and 450 mg Valganciclovir p.o., single dose, read-out: Half-Life (h), geometric mean (converted)), 1.17 h; in data set [2] (10 mg, C = 10 mg VRx-3996 p.o. and 900 mg Valganciclovir p.o., single dose, read-out: Half-Life (h), geometric mean (converted)), 1.67 h; in data set [2] (humans, oral, summary of Table 6, read-out: T1/2 (converted)), about 2 h. In addition, the Tmax was 3 h in data set [2] (setting [4]), 2 h in data set [2] (setting [5]) and 1 h in data set [2] (setting [6]). In addition, in data set [3] (PBMC of healthy donors, time-course, doses down to 10 nM, FIG. 3), the “Duration of effect on H3 acetylation” value is given as “long-lasting”. The “Potency in inducing elevated levels of Histone 3 acetylation” value in data set [3] (PBMC of healthy volunteers, even at 100 nM, FIG. 2) is recorded as “much more potent than entinostat”.
